{
  "source": "patent US20240335439A1",
  "about": "“USE OF AND METHOD FOR TELAPREVIR IN PREPARATION OF DRUG FOR TREATING AN ISCHEMIA/REPERFUSION INJURY AND CYTOPROTECTIVE DRUG” (THE THIRD XIANGYA HOSPITAL OF CENTRAL SOUTH UNIVERSITY, priority 2021, published 2024)",
  "key": {"[1]": {"tested_on": "ischemic stroke mouse models", "experiment": "Ischemic stroke mouse model (MCAO 1 h, reperfusion 24 h)", "assay_type": "in vivo, C57BL/6J mice", "conditions": "telaprevir 90 mg/kg intramuscular after 1 hour of ischemia and 1 hour of reperfusion", "experimental": "(§1) Experimental animals: 7-week-old male C57BL/6J mice. The experimental animals were raised for one week in an environment with a temperature of 25° C., a relative humidity of 60%, free drinking water, and timed and quantified feeding, and then administered according to the requirements of each experimental group.\nMethod for building an ischemic stroke mouse model: A cerebral ischemia/reperfusion mouse model was prepared by a middle cerebral artery occlusion (MCAO) method. The steps were as follows: after an 8-week-old male C57BL/6J mouse was anesthetized by intraperitoneal injection with 0.3% pentobarbital sodium (20 mL/kg), a left common carotid artery (CCA) was isolated, and a left external carotid artery (ECA) and internal carotid artery (ICA) were isolated upwards; the ECA and ICA were temporarily occluded with ophthalmic forceps, and a proximal end of the CCA was ligated; a knotted spare silk suture was placed at a distal end of the CCA, a small incision was cut below the suture, an occlusion suture was inserted into the internal carotid artery, arterial clips on the ECA and ICA were released, and the occlusion suture was delivered into the cranium along the ICA; and when encountering resistance, the silk suture was tightened, the occlusion suture was secured. […]\nNeurological function scores of mice were detected and cerebral infarct volumes were measured."}, "[2]": {"tested_on": "Alzheimer's disease mouse models", "experiment": "Alzheimer's disease mouse model (Aβ1-42 into hippocampus), Morris water maze experiment", "assay_type": "in vivo, ICR mice", "conditions": "telaprevir 40 mg/kg intramuscular daily for 17 days, #P<0.05 vs AD+vehicle", "experimental": "as §1, with “7-week-old healthy” for “7-week-old”, “ICR mice weighing 25-30 g.” for “C57BL/6J mice.”\nBuilding of an Alzheimer's disease mouse model and drug treatment: Aβ1-42 was purchased from MCE Reagent Company, dissolved in DMSO, diluted with physiological saline to 2 μg/μL, and incubated in an incubator at 37° C. for 7 days to convert the Aβ1-42 into an aggregated state. […]\nA learning and memory ability and cognitive function of mice were detected by a Morris water maze experiment and a new/old object recognition experiment.\nAccording to the requirements of the water maze experiment, a Morris water maze was divided into four quadrants, a platform having a diameter of 12 cm and a height of 35 cm was placed in one of the quadrants, water was added to submerge the platform 1-2 cm, and the pool water was dyed black with carbon ink. After the positioning navigation experiment lasted for 5 days, the platform was removed for a spatial probe experiment, and the time for the mice to reach the original platform position (namely, incubation period) and the number of times they crossed the platform were recorded."}},
  "data": [
    {"smiles": "CCC[C@H](NC(=O)[C@@H]1[C@H]2CCC[C@H]2CN1C(=O)[C@@H](NC(=O)[C@@H](NC(=O)c1cnccn1)C1CCCCC1)C(C)(C)C)C(=O)C(=O)NC1CC1", "note": "[telaprevir]", "values": [
      {"measurement": "neurological impairment symptoms (Longa neurological function score) of mice", "setting": "[1]; ##P<0.01 vs I/R, FIG. 3B", "result": "significantly improve"},
      {"measurement": "cerebral infarct volume of mice (TTC staining)", "setting": "[1]; vs I/R, FIG. 3A", "result": "significantly decreased"},
      {"measurement": "time to find the original platform position (incubation period), Morris water maze", "setting": "[2]; FIG. 6A", "result": "significant decrease"},
      {"measurement": "number of times they crossed the platform, Morris water maze", "setting": "[2]; FIG. 6B", "result": "significant increase"}
    ]}
  ]
}
